Measured values taken from a melting point compilation (Tetko et al.; mined from patent text by program, amines drawn as free bases though some values may be those of a salt).

Row | melting point | SMILES
1 | 78 to 81 °C | Cc1ccccc1C(=O)NCC(C)O (centres undefined)
2 | 217 to 220 °C | Cc1nc(-c2ccc(NS(=O)(=O)c3sc4ccc(F)cc4c3C)c(S(C)(=O)=O)c2)cs1
3 | 110 to 111 °C | O=C1CCCC(c2ccc(Cl)cc2)O1 (centres undefined)
4 | 207 to 209 °C | O=[N+]([O-])c1ccc(C=[N+]([O-])c2cccc(CO)c2)cc1
5 | 127 to 129 °C | COc1ncc(Cl)c(C)c1C(=O)O
6 | 88 to 89 °C | N#CC(CCCCCC(=O)O)c1ccc2ccccc2c1 (centres undefined)
7 | 156 °C | CCCCC(=NNC(=O)OC(C)(C)C)c1ccncc1
8 | 195 to 197 °C | CN(CC(=O)O)C[C@H]1O[C@H](c2ccccc2Cl)c2cc(Cl)ccc2N(Cc2ccccc2)C1=O (relative stereo)
9 | 170 to 171 °C | CC1=C(Cc2ccc(-c3ccc(N(C)C)cc3)cc2)C(=O)c2ccccc2C1=O
10 | 64 to 66 °C | CCC(Cc1ccc(OC)c(OCCc2ccc(C(F)(F)F)cc2)c1)C(=O)O (centres undefined)
11 | 134 to 135 °C | CON(c1ccc([N+](=O)[O-])cc1C#N)S(=O)(=O)c1ccc(C(F)(F)F)cc1
12 | 180 °C | NS(=O)(=O)c1ccsc1C1=NOCCO1
13 | 238 to 240 °C | O=C(NC1CCN(CCc2ccccc2)CC1)c1c[nH]c2ccc(F)cc12
14 | 79.5 to 81.5 °C | O=C(NC1CC(=O)c2ccccc2C1)OCc1ccccc1 (centres undefined)
15 | 195 to 198 °C | Cc1cc2cc(CN3CCCC3)cnc2cc1NC(=O)c1ccc(-c2ccc(Cl)cc2)cc1F
16 | 83 to 84 °C | COC(=O)C1CCc2ccc(O)cc2C1 (centres undefined)
17 | 205 to 206 °C | CS(=O)(=O)c1ccc(-c2cnn(CC(=O)c3ccc(C(F)(F)F)cc3)c(=O)c2-c2ccc(F)cc2)cc1
18 | 88 to 90 °C | CCOC(=O)CCCCOc1ccc(C(=N)NC(=O)OCc2ccccc2)cc1
19 | 197 to 198 °C | CC(C)(COC(=O)COc1ccc(C(=O)CN2Cc3cc(C(N)=S)ccc3C2=O)cc1)NS(=O)(=O)c1cccnc1
20 | 135 to 137 °C | CC(C)(OCc1nn(Cc2ccccc2)c2ccccc12)C(=O)N1CCOCC1
21 | 71 °C | O=Cc1ccc(OCc2ccccc2F)c(Cc2ccccc2F)c1
22 | 117 to 118 °C | O=C1c2cccc(Br)c2C(=O)N1c1ccc(OC(F)(F)F)cc1
23 | 122 to 124 °C | COC(=O)CCCc1cc2nc(Cl)ccc2n1S(=O)(=O)c1ccc(-n2cccn2)cc1
24 | 162 to 164 °C | Cc1[nH]c2ccc(S(=O)(=O)c3ccc(C(F)(F)F)cc3)cc2c1CCNC(=O)OC(C)(C)C

Row | melting point | SMILES
25 | 109 to 111 °C | CCOC(=O)CC(c1ccccc1)c1ccc(NC(=O)NCCCl)cc1 (centres undefined)
26 | 143 °C | O=c1cc(N2CCOCC2)oc2ccccc12
27 | 90 to 92 °C | COC(=O)c1ccc(CN2N=C(c3ccc(OC)c(OC)c3)[C@@H]3CCCC[C@@H]3C2=O)cc1 (relative stereo)
28 | 107 °C | CCCOc1c(C(=O)OCC)oc2ccc([N+](=O)[O-])cc12
29 | 78.6 to 79.8 °C | NCc1cc2c(Oc3ccc(Cl)cc3)cncc2s1
30 | 93 to 96 °C | O=C(c1ccc(Oc2cccc3ccccc23)cc1)C(O)O
31 | 142 to 145 °C | Clc1cc(-c2cc3ccccc3s2)nc2ccccc12
32 | 95 to 96 °C | CCCCC1Sc2c(cc(OC)c(Cl)c2Cl)C1O (centres undefined)
33 | 174 to 175 °C | CCCc1c[nH]c([C@@H]2Cc3ccccc3N2C(C)=O)n1
34 | > 300 °C | O=C(O)c1ccc2oc(-c3ccc(O)cc3)cc2c1
35 | 182 to 183 °C | Cc1cccnc1C(CO)COc1ccc(CC2SC(=O)NC2=O)cc1 (centres undefined)
36 | 213 °C | O=C(Nc1n[nH]c(=S)s1)NC(Cc1ccccc1)C(=O)NCc1ccc2c(c1)OCO2 (centres undefined)
37 | 284 to 285 °C | O=C(O)c1ccc(-c2ccc(-c3ccc(C(F)(F)F)cc3)s2)cc1
38 | 85.6 °C | O=[N+]([O-])c1ccccc1NCc1ccco1
39 | 119 °C | O=C(NCC1CCNCC1)c1ccccc1
40 | 162 to 163 °C | OCC1(CO)c2ccccc2C=Cc2ccccc21
41 | 120 to 129 °C | COc1cc(OC)nc(NC(=O)NS(=O)(=O)c2c(OC)ccc3snnc23)n1
42 | 43 to 45 °C | CC(=O)OC1CCC(c2ccccc2)CC1 (centres undefined)
43 | 112 to 114 °C | CN(Cc1ccc(Cl)cc1)S(=O)(=O)c1cn(S(=O)(=O)N(C)C)cn1
44 | 273 to 274 °C | CCCOc1ccccc1-c1nc2nc(NC(C)=O)ncc2c(=O)[nH]1
45 | 213 to 216 °C | COc1cccc(-n2ncc(C(=O)O)c2C(N)=O)c1
46 | 93.5 to 95 °C | COC(=O)c1ccccc1C1CC(c2ccccc2)=NO1 (centres undefined)
47 | 142 to 144 °C | CCOC(=O)C1(C(=O)OCC)CCC2(c3cc(OC)c(OC)cc3CCN2C(C)=O)C(C2c3cc(OC)c(OC)cc3CCN2CC)C1 (centres undefined)
48 | 116 °C | CCOC(=O)CC(=O)C=Cc1ccc([N+](=O)[O-])cc1

Row | melting point | SMILES
49 | 134 to 135 °C | CC(=O)C1(OC(=O)CCl)CCC2C3CCC4=CC(=O)CCC4(C)C3CCC21C (centres undefined)
50 | 196 °C | Cc1cc(OCCN2CCCCC2)ccc1NC(=O)NC1C2CC3CC(C2)CC1C3 (centres undefined)
51 | 133 to 134 °C | CCCCOc1cc(C(=O)O)cc([N+](=O)[O-])c1-c1ccccc1
52 | 250 °C | Nc1c(C(=O)NC(Cc2ccc(OCc3ccccc3)cc2)C(=O)O)oc2cc(-c3ccc(Cl)cc3)ccc12 (centres undefined)
53 | 178 to 180 °C | CCc1ccc(C=C2C(=O)c3cc(O)ccc3OC2c2ccc(CC)cc2)cc1 (centres undefined)
54 | 230 to 234 °C | Cc1ccc(NC(=O)c2cccc(C(F)(F)F)c2)cc1/C=C/n1cnc2c(Nc3ccc(P(C)(C)=O)cc3)ncnc21
55 | 190 to 192 °C | CCCOc1ccccc1-c1ccc2c(c1)C=C(C(=O)Nc1ccc(CN(C)C3CCOCC3)cc1)CCS2(=O)=O
56 | 158 °C | CC(=O)OC1CSC(Oc2ccc3sc(C)nc3c2)C(OC(C)=O)C1OC(C)=O (centres undefined)
57 | 93 to 96 °C | CCN1CCC(C2CCN(C(=O)OCc3ccccc3)CC2)CC1
58 | 94 to 95 °C | CC(C)(C)OC(=O)CCC1CC(O)C(=O)N1 (centres undefined)
59 | 218 to 222 °C | NC(=O)Cc1ccccc1CSc1nc2ccccc2[nH]1
60 | 206 to 207 °C | CC(=O)NN(C(C)=O)[C@@H]1c2cc(C#N)ccc2OC(C)(C)[C@H]1O (relative stereo)
61 | 154 to 157 °C | Cc1cccc(C2SC3(CCN(C(=O)Oc4ccccc4)CC3)c3ccccc32)c1 (centres undefined)
62 | 216 to 217 °C | CN(C1CCN(CC(C)(C)O)CC1)S(=O)(=O)c1ccc(Nc2nccc(Nc3ccc(F)cc3)n2)cc1
63 | 83 to 84 °C | O=C(CCCCCl)c1cc2c3c(c1)CCC(=O)N3CCC2
64 | 159 to 160 °C | CC(C)c1nccn1N=Cc1cc(C(C)(C)C)c(O)c(C(C)(C)C)c1
65 | 94 °C | COc1ccc(NCc2c(F)c(F)c(C(F)(F)F)c(F)c2F)cc1C(=O)O
66 | 277 to 279 °C | CCCOc1ccc(Cl)cc1C1=NC(=O)C2=NC=NC2=N1
67 | 109 to 110 °C | Cc1oc(-c2ccccc2)nc1CCOc1ccc(CCC#N)cc1
68 | 75 to 76 °C | OCCN(CCO)CC(c1ccc(Cl)cc1)c1ccc(Cl)cc1
69 | 135 to 137 °C | C#CCOc1ccc(CC(=O)O)cc1[N+](=O)[O-]
70 | 186 °C | COCCOc1ccc(/C=C/C(=O)NS(=O)(=O)c2ccc(C(F)(F)F)cc2)c(Oc2ncc(C(F)(F)F)cc2Cl)c1
71 | 134 to 135 °C | COc1ccc(C2(CCC(=O)O)SCCCS2)cc1OC
72 | 170 to 171 °C | OC(CN1CCC(c2noc3cc(F)ccc23)CC1)CN1CCCc2ccccc21 (centres undefined)

Row | melting point | SMILES
73 | 178 to 183 °C | CC(C)C(C(=O)O)N1CC(N)C1=O (centres undefined)
74 | 125 to 130 °C | CCCCC(C)OC(=O)c1ccccc1S(=O)(=O)NC(=O)Nc1nc(C)nc(OC)n1 (centres undefined)
75 | 129 to 133 °C | CC(C)c1cc(C=Cc2ccccc2O)on1
76 | 241 to 243 °C | CC(=O)c1cc2cccc(NS(=O)(=O)c3cccs3)c2[nH]1
77 | 224 °C | CC#CCOc1ccc(S(=O)(=O)C(C(=O)NO)C2CCN(C(=O)c3ccccc3)CC2)cc1 (centres undefined)
78 | 193 to 194 °C | CCc1cc(C)cc(CC)c1C1C(=O)N2CCOCCN2C1=O
79 | 130 to 131 °C | COc1cc(C2OCC(C)(C)C2(O)C(C)(C)C)cc(OC)c1Br (centres undefined)
80 | 157 °C | COc1c(C2CCN(CCCCNC(=O)c3oc(-c4ccc(C#N)cc4)nc3C)CC2)ccc2c1CCCC2
81 | 93 to 94 °C | O=P(c1ccccc1)(c1ccccc1)C(F)F
82 | 48 to 49 °C | CCOC(=O)c1cnn(-c2ccc(F)cc2)c1C
83 | 93 to 97 °C | Cc1ccc(C2(C=O)C3CC4CC(C3)CC2C4)cc1 (centres undefined)
84 | 143 to 147 °C | CCCc1c(C#N)ccc(NC(=NC#N)Nc2cccc(Cl)c2Cl)c1O
85 | 218 to 220 °C | O=C(NC12CC3CC(CC1C3)C2)c1ccncc1C(c1ccc(O)cc1)c1ccc(O)cc1
86 | 148 °C | CCN1c2ccccc2C=C(Br)c2ccccc21
87 | 108 to 109 °C | C=CCCOc1ccc(C(=O)Oc2ccc3ccc(=O)oc3c2)cc1
88 | 158 to 160 °C | CCOC(=O)c1ccc2nc(-c3ccc(C)cc3)c(CN(C)C(=O)CC(C)C)n2c1
89 | 189 to 191 °C | O=C1C(=CO)C(c2ccc(Cl)cc2Cl)c2c(Cl)cc(Cl)cc21 (centres undefined)
90 | 50.5 to 51 °C | O=[N+]([O-])c1ccc(F)cc1OC1C=CCC1 (centres undefined)
91 | 196 to 198 °C | Cc1ccc2c(Cl)cc(S(=O)(=O)F)c(O)c2n1
92 | 169 to 171 °C | OCc1c(CO)c(-c2ccccc2)n2c1Cc1ccccc1-2
93 | 165 to 166 °C | CC(C)(C)OC(=O)C(C1NC(C(=O)OCc2ccccc2)C2(CCCCC2)S1)N1C(=O)c2ccccc2C1=O (centres undefined)
94 | 128 to 132 °C | COC(=O)C(=CNC1CC1)C(=O)c1cc(F)c(Cl)cc1OC
95 | > 260 °C | CCOC(=O)c1cc(-c2csc(-c3ccnc(NCC4CC4)c3)n2)c(=O)[nH]c1C
96 | 185 °C | CC1(C)CCC(C)(C)c2cc(N)c(N)cc21

Row | SMILES | melting point
97 | CC(C)N1Cc2ccccc2P1(=O)c1ccccc1 (centres undefined) | 92 to 94 °C
98 | COc1ccc(CC(C)NCC(O)c2cccc(Cl)c2F)cc1 (centres undefined) | 95 to 101 °C
99 | CN1C[C@H](CN2CCN(C(c3ccccc3)c3ccccc3)CC2)C[C@@H]2c3cccc4[nH]c(Cl)c(c34)C[C@H]21 | 250 °C
